Laboratory results taken from US8609587B2, “Synergistic herbicidal compositions containing propyzamide and aminopyralid” (Dow AgroSciences, LLC., priority 2010, dated 2013).

Assays:
Format in all cases: in vivo
[1] = test system: Matricaria recutita L. (wild chamomile); assay: Field trial in winter oilseed rape, visual weed control, MATCH; settings: 112 to 188 Days after Application
Protocol: (§1) Field trials were conducted in winter oilseed rape crop using small plot research methodology. The oilseed rape crop was grown using normal cultural practices for the respective area of the trials, using varieties, fertilization and maintenance to ensure normal growth of the crop and the weeds. Plot size was 2 meters (m) wide by 10 m long with 4 replicates by treatment. All treatments were applied preemergence to early postemergence to the weeds using a compressed air backpack sprayer delivering 200 liters per hectare (L/ha) spray volume. Commercially available product of propyzamide/pronamide was mixed with a formulation of aminopyralid potassium at appropriately formulated product rates to achieve the desired rates based on a unit area of application (hectare) to achieve the desired rates as shown. Treatments consisted of propyzamide applied alone, as well as aminopyralid applied alone, and in combination, to measure herbicidal weed control and any synergistic interactions. Treatments were rated at different intervals from treatment to time of evaluation up to the following year when the crop starts to grow again in the spring. The weed efficacy was compared to the untreated control plants. Visual weed control was scored on a scale of 0 to 100 percent where 0 corresponds to no injury and 100 corresponds to complete kill. […]

[2] = test system: Poa annua L. (annual bluegrass); assay: Field trial in winter oilseed rape, visual weed control, POANN; settings: Great Britain, 93 to 200 Days after Application
Protocol: (§2) Field trials were conducted in winter oilseed rape crop using small plot research methodology. The oilseed rape crop was grown using normal cultural practices for the respective area of the trials, using varieties, fertilization and maintenance to ensure normal growth of the crop and the weeds. Plot size was 2 meters (m) wide by 10 m long with 4 replicates by treatment. All treatments were applied preemergence to early postemergence to the weeds using a compressed air backpack sprayer delivering 200 liters per hectare (L/ha) spray volume. Commercially available product of propyzamide/pronamide was mixed with a formulation of aminopyralid potassium at appropriately formulated product rates to achieve the desired rates based on a unit area of application (hectare) to achieve the desired rates as shown. Treatments consisted of propyzamide applied alone, as well as aminopyralid applied alone, and in combination, to measure herbicidal weed control and any synergistic interactions. Treatments were rated at different intervals from treatment to time of evaluation up to the following year when the crop starts to grow again in the spring. The weed efficacy was compared to the untreated control plants. Visual weed control was scored on a scale of 0 to 100 percent where 0 corresponds to no injury and 100 corresponds to complete kill. Colby's equation was used to determine the herbicidal effects expected from the mixtures (Colby, S. R. […] Calculation of the synergistic and antagonistic response of herbicide combinations.). The following equation was used to calculate the expected activity of mixtures containing two active ingredients, A and B: […] A=observed efficacy of active ingredient A at the same concentration as used in the mixture; B=observed efficacy of active ingredient B at the same concentration as used in the mixture.

[3] = test system: Brassica napus L. ssp. Napus (winter oil seed rape); assay: Field trial, crop tolerance (crop injury) of winter oilseed rape, BRSNW; settings: 167 Days after Application
Protocol: as §2

[4] = test system: Papaver rhoeas L. (corn poppy); assay: Field trial in winter oilseed rape, visual weed control, PAPRH; settings: for % Control PAPRH (1) Ob: France, 112 to 188 Days after Application; for % Control PAPRH (2) Ob: Great Britain
Protocol: as §2

[5] = test system: Viola arvensis Murr. (field violet); assay: Field trial in winter oilseed rape, visual weed control, VIOAR; settings: 112 to 188 Days after Application
Protocol: as §2

[6] = test system: Alopecurus myosuroides Huds. (blackgrass); assay: Field trial in winter oilseed rape, visual weed control, ALOMY; settings: 93 to 200 Days after Application
Protocol: as §2

[7] = test system: Matricaria spp L. (chamomile species); assay: Field trial in winter oilseed rape, visual weed control, MATSS; settings: 93 to 188 Days after Application
Protocol: as §1

Nc1cc(Cl)nc(C(=O)O)c1Cl [Aminopyralid, 4-amino-3,6-dichloro-2-pyridinecarboxylic acid]
% Control MATCH Ob ([1]; aminopyralid 6 g ae/ha alone): 80%
% Control POANN (1) Ob ([2]; aminopyralid 6 g ae/ha alone): 0%
% Control POANN (2) Ob ([2]; aminopyralid 6 g ae/ha alone): 0%
% Control POANN (1) Ob ([2]; aminopyralid 8 g ae/ha alone): 0%
% Control POANN (2) Ob ([2]; aminopyralid 8 g ae/ha alone): 0%
% Crop Injury BRSNW Ob ([3]; aminopyralid 6 g ae/ha alone): 23%
% Crop Injury BRSNW Ob ([3]; aminopyralid 8 g ae/ha alone): 22%
% Control PAPRH (1) Ob ([4]; aminopyralid 6 g ae/ha alone): 48%
% Control PAPRH (1) Ob ([4]; aminopyralid 8 g ae/ha alone): 68%
% Control PAPRH (2) Ob ([4]; aminopyralid 6 g ae/ha alone, 93 to 188 Days after Application (Table 2)): 48%
% Control PAPRH (2) Ob ([4]; aminopyralid 6 g ae/ha alone, 112 to 188 Days after Application (Table 1)): 0%
% Control PAPRH (2) Ob ([4]; aminopyralid 8 g ae/ha alone, 93 to 188 Days after Application (Table 2)): 68%
% Control PAPRH (2) Ob ([4]; aminopyralid 8 g ae/ha alone, 112 to 188 Days after Application (Table 1)): 75%
% Control VIOAR Ob ([5]; aminopyralid 6 g ae/ha alone): 0%
% Control VIOAR Ob ([5]; aminopyralid 8 g ae/ha alone): 0%
% Control ALOMY Ob ([6]; aminopyralid 6 g ae/ha alone): 0%
% Control ALOMY Ob ([6]; aminopyralid 8 g ae/ha alone): 0%
% Control MATSS Ob ([7]; aminopyralid 10 g ae/ha alone): 48%

C#CC(C)(C)NC(=O)c1cc(Cl)cc(Cl)c1 [Propyzamide, 3,5-dichloro-N-(1,1-dimethylpropynyl)benzamide]
% Control MATCH Ob ([1]; propyzamide 750 g ai/ha alone): 0%
% Control POANN (1) Ob ([2]; propyzamide 750 g ai/ha alone): 22%
% Control POANN (2) Ob ([2]; propyzamide 750 g ai/ha alone): 22%
% Control POANN (1) Ob ([2]; propyzamide 840 g ai/ha alone): 22%
% Crop Injury BRSNW Ob ([3]; propyzamide 750 g ai/ha alone): 0%
% Crop Injury BRSNW Ob ([3]; propyzamide 840 g ai/ha alone): 2%
% Control PAPRH (1) Ob ([4]; propyzamide 750 g ai/ha alone): 18%
% Control PAPRH (2) Ob ([4]; propyzamide 750 g ai/ha alone, 112 to 188 Days after Application (Table 1)): 0%
% Control PAPRH (2) Ob ([4]; propyzamide 840 g ai/ha alone, 93 to 188 Days after Application (Table 2)): 11%
% Control VIOAR Ob ([5]; propyzamide 750 g ai/ha alone): 27%
% Control ALOMY Ob ([6]; propyzamide 750 g ai/ha alone): 75%
% Control MATSS Ob ([7]; propyzamide 750 g ai/ha alone): 7%
